Results taken from BindingDB's records for doi:10.1021/acschembio.5b00398 (University of Oxford, 2015).

Experiments:
Experiment in all cases: EMSA
[1] = molecular target: Cyclin-dependent kinase 2 [C118L,A144C] (Homo sapiens, UniProt P24941, A144C/C118L)
Procedure: (§1) First, 4.5 μL of 2× kinase solution was added to 0.05 μL of compound (maximum concentration 1.8 mM in 90% DMSO and 10% H2O). To allow for possible slow association, plates with type II inhibitors were incubated for 60 min at 30 °C. The assay started after the addition of 4.5 μL of 2× peptide with ATP and was run for 60 min at 30 °C, after which 16 μL of stop solution was added (100 mM HEPES pH 7.5, 5% DMSO, 0.1% coating reagent (Caliper Lifescience) 10 mM EDTA, pH 8.0, 0.015% BRIJ35). All reactions were performed in 50 mM HEPES, pH 7.5, 1 mM DTT, 0.02% Tween 20, 0.02% BSA, 10 mM betaglycerophosphate, 0.01 mM Na3VO4, 0.6% DMSO, and 2 μM peptide.

[2] = molecular target: Cyclin-dependent kinase 2 [A144G] (Homo sapiens, UniProt P24941, A144G)
Procedure: as §1

[3] = molecular target: Cyclin-dependent kinase 2 [A144C] (Homo sapiens, UniProt P24941, A144C)
Procedure: as §1

[4] = molecular target: Cyclin-dependent kinase 2 [F80M] (Homo sapiens, UniProt P24941, F80M)
Procedure: as §1

[5] = molecular target: Cyclin-dependent kinase 2 (Homo sapiens, UniProt P24941)
Procedure: as §1

[6] = molecular target: Cyclin-dependent kinase 2 [C118L] (Homo sapiens, UniProt P24941, C118L)
Procedure: as §1

[7] = molecular target: Cyclin-dependent kinase 2 [C118I] (Homo sapiens, UniProt P24941, C118I)
Procedure: as §1

[8] = molecular target: Cyclin-dependent kinase 2 [F80T] (Homo sapiens, UniProt P24941, F80T)
Procedure: as §1

CC(=O)Nc1cc(Oc2ccc3c(C(=O)Nc4ccc(CN5CCN(C)CC5)c(C(F)(F)F)c4)cccc3c2)ncn1 [K03859 (2)]
IC50 [1]: > 10 µM
IC50 [2]: > 10 µM
IC50 [3]: > 10 µM
IC50 [4]: > 10 µM
IC50 [5]: > 10 µM
IC50 [6]: > 10 µM
IC50 [7]: > 10 µM
IC50 [8]: 7.1 µM
